# Source: paper PMC9403976, “Elucidating the path to Plasmodium prolyl-tRNA synthetase inhibitors that overcome halofuginone resistance” (Nature Communications, 2022)
# Several values for one entry are separate records, joined by “and”; a condition that tells them apart may be missing. Equal values may be shown once. Read-outs that look alike come from different tables or passages of the source.
# How the values were obtained:
# [1] = test system: P. falciparum Dd2-2D4 NCP26 selections S1-3; assay: ABS growth assay on bulk populations and clones from NCP26 resistance selections S1-3; format: cell-based, Plasmodium falciparum; conditions: for Fold-change Resistance: independent experiments; for EC50: Plasmodium falciparum
# P. falciparum Dd2-2D4 = assay: P. falciparum asexual blood stage (ABS) growth assay, SYBR Green, 72 h, wild-type parasites; format: cell-based, Plasmodium falciparum
# HsProRS [2] = molecular target: T1, HsProRS (Homo sapiens, UniProt P07814); assay: TR-FRET ligand displacement assay with tracer MAT379 (CoraFluor-1-Halo and anti-His6 antibody formats); format: binding; parameters: made in house; host or cells: E. coli SoluBL-21; conditions: for normalized TR-FRET signal (Fig 2k): 15 pM HT-HsProRS; for normalized TR-FRET signal (dose-response replicates): SI Fig 15, titrating, listed as ProSA (25)
# HT-PfcProRS [3] = molecular target: T2, HT-PfcProRS (Plasmodium falciparum, UniProt Q8I5R7); assay: biochemical
# Experimental: (§1) A Multidrop Combi Reagent Dispenser (Thermo Fisher Scientific) was used to dispense 20 μL of 2× protein solution into each well. […] Plates were mixed on an Ika MTS 2/4 Digital Microtiter Shaker at 750 rpm for 2 min, centrifuged at 1000 × g at 25 °C for 1 min, and allowed to equilibrate for 2 h at room temperature before TR-FRET measurements were taken.
# (§2) PRISM (V. 8.4.3–9.1.0, GraphPad) was used to perform non-linear regression analysis (log(inhibitor) vs. response–Variable slope (four parameters)), plot dose-response curves, and calculate IC50 values. The Cheng–Prusoff equation was used to convert IC50 to KD values (Eq. (4)):4 KD=IC50/1+[MAT379]/KD,MAT379
# HT-HsProRS [4] = molecular target: T3, HT-HsProRS (Homo sapiens, UniProt P07814); conditions: replicates 1-4
# T3 sequence (P07814 996-1512): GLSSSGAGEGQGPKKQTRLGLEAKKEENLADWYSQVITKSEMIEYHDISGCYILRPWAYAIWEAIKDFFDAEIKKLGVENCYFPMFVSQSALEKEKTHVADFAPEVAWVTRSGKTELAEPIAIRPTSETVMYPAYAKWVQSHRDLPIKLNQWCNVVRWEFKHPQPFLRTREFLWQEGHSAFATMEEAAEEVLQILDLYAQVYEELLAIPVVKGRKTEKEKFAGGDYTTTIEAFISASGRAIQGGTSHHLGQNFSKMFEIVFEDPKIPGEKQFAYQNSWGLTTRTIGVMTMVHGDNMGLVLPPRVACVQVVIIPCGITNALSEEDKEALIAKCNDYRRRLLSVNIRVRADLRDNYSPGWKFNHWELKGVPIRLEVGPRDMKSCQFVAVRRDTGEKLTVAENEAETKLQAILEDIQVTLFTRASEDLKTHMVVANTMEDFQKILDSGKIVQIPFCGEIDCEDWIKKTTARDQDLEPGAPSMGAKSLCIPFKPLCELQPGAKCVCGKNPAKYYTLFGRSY
# Experimental: as §1, §2
# HT-HsProRS [5] = molecular target: T3, HT-HsProRS; assay: biochemical
# Experimental: as §1, §2
# HsProRS [6] = molecular target: T1, HsProRS; conditions: ref Heacock et al.; cited from earlier work
# HT-PfcProRS [7] = molecular target: T2, HT-PfcProRS
# Experimental: as §1, §2
# T2 sequence (Q8I5R7 249-746): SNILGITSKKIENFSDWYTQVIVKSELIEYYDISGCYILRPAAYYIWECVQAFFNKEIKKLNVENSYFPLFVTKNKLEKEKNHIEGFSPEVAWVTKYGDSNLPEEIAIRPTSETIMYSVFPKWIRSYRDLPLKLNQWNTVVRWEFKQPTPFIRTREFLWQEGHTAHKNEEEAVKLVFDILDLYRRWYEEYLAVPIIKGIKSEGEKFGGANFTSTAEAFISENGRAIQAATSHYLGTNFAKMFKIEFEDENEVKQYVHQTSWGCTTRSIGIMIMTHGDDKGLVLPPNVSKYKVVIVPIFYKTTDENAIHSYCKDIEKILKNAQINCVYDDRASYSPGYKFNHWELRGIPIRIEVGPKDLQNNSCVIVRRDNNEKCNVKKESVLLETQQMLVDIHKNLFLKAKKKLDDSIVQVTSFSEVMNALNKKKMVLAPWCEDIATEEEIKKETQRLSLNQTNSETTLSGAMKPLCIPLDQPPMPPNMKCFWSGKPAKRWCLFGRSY
compound,measurement,setting,value
C[C@H]1[C@@H](O)O[C@@H]2O[C@@]3(C)CC[C@H]4[C@H](C)CC[C@@H]1[C@@]24OO3 [Dihydroartemesinin (DHA)],Fold-change Resistance,[1]; S1 - Clone A8,0.68 and 0.97
same,Fold-change Resistance,[1]; S2 - Clone B9,2.04
same,Fold-change Resistance,[1]; S3 - Clone B3,0.71 and 0.6
same,Fold-change Resistance,"P. falciparum Dd2-2D4; Dd2-2D4, independent experiments",0.78 and 1.22 and 1
"Nc1ncnc2c1ncn2[C@@H]1O[C@H](COS(=O)(=O)NC(=O)[C@@H]2CCCN2)[C@@H](O)[C@H]1O [ProSA, reference compound]",normalized TR-FRET signal (Fig 2k),HsProRS [2]; Log[inhibitor] (M) -10.319,9.27E-01 and 5.96E-01 and 5.68E-01 and 6.24E-01 and 7.95E-01 and 4.77E-01
same,normalized TR-FRET signal (Fig 2k),HsProRS [2]; Log[inhibitor] (M) -10.921,1.19E+00 and 1.45E+00 and 8.99E-01 and 1.44E+00
same,normalized TR-FRET signal (Fig 2k),HsProRS [2]; Log[inhibitor] (M) -11.098,1.29E+00 and 1.17E+00 and 7.99E-01 and 9.06E-01
same,normalized TR-FRET signal (Fig 2i),HsProRS [2]; Log[inhibitor] (M) -8.208,2.86E-01 and 2.69E-01 and 2.23E-01
same,normalized TR-FRET signal (Fig 2j),HsProRS [2]; Log[inhibitor] (M) -8.208,2.20E-01 and 2.14E-01 and 2.31E-01
same,normalized TR-FRET signal (Fig 2i),HsProRS [2]; Log[inhibitor] (M) -8.509,5.48E-01 and 5.47E-01 and 6.11E-01
same,normalized TR-FRET signal (Fig 2j),HsProRS [2]; Log[inhibitor] (M) -8.509,6.99E-01 and 6.28E-01 and 5.28E-01
same,normalized TR-FRET signal (Fig 2i),HsProRS [2]; Log[inhibitor] (M) -8.796,8.53E-01 and 8.04E-01 and 8.09E-01
same,normalized TR-FRET signal (Fig 2j),HsProRS [2]; Log[inhibitor] (M) -8.796,7.16E-01 and 7.19E-01 and 8.75E-01
same,normalized TR-FRET signal (Fig 2i),HsProRS [2]; Log[inhibitor] (M) -9.108,9.05E-01 and 8.48E-01 and 8.77E-01
same,normalized TR-FRET signal (Fig 2j),HsProRS [2]; Log[inhibitor] (M) -9.108,8.43E-01 and 8.74E-01 and 8.91E-01
same,normalized TR-FRET signal (Fig 2i),HsProRS [2]; Log[inhibitor] (M) -9.409,8.95E-01
same,normalized TR-FRET signal (Fig 2j),HsProRS [2]; Log[inhibitor] (M) -10.602,8.90E-01
same,normalized TR-FRET signal (dose-response replicates),HsProRS [2]; Log[inhibitor] (M) -7.601,-6.47E-02 and -3.87E-03 and 4.40E-03
same,normalized TR-FRET signal (dose-response replicates),HsProRS [2]; Log[inhibitor] (M) -7.904,4.29E-02 and -1.08E-01 and 6.52E-02
same,normalized TR-FRET signal (dose-response replicates),HsProRS [2]; Log[inhibitor] (M) -8.208,2.09E-01 and 4.52E-01 and 3.79E-01
same,normalized TR-FRET signal (dose-response replicates),HsProRS [2]; Log[inhibitor] (M) -8.509,6.59E-01 and 7.25E-01 and 6.81E-01
same,normalized TR-FRET signal (dose-response replicates),HsProRS [2]; Log[inhibitor] (M) -8.796,8.90E-01 and 6.94E-01 and 8.02E-01
same,normalized TR-FRET signal (dose-response replicates),HsProRS [2]; Log[inhibitor] (M) -9.108,8.78E-01 and 8.82E-01
same,normalized TR-FRET signal (dose-response replicates),HsProRS [2]; Log[inhibitor] (M) -10.301,9.09E-01
same,normalized TR-FRET signal (dose-response replicates),HsProRS [2]; Log[inhibitor] (M) -10.602,1.29E+00
same,normalized TR-FRET signal (dose-response replicates),HsProRS [2]; Log[inhibitor] (M) -11,9.02E-01
same,EC50,"[1]; DD2, cell line S1 - Clone A8, read-out: EC50 [nM] mean",258 nM
same,EC50,"[1]; DD2, cell line S2 - Clone A3, read-out: EC50 [nM] mean",209 nM
same,EC50,"[1]; DD2, cell line S2 - Clone B9, read-out: EC50 [nM] mean",267 nM
same,EC50,"[1]; DD2, cell line S2 - Clone C5, read-out: EC50 [nM] mean",243 nM
same,EC50,"[1]; DD2, cell line S3 - Clone B3, read-out: EC50 [nM] mean",593 nM
same,EC50,"[1]; DD2, cell line S3 - Clone B7, read-out: EC50 [nM] mean",909 nM
same,EC50,"[1]; DD2, read-out: EC50 [nM] mean, cell line S3 - Clone B2",838 nM
same,EC50,"P. falciparum Dd2-2D4; Plasmodium falciparum, DD2, SI Fig 16b, values on -log scale, read-out: ABS - Dd2-2D4 (converted)",151 nM
O=C(O)[C@@H]1CCCN1 [proline],Kd,HT-PfcProRS [3],457000 nM
same,Proline - […] HT-HsProRS - 1000nM MAT379,HT-HsProRS [4]; Log[Substrate] (M) -1.000,5.08E-02 and 1.93E-02 and 4.05E-02 and 1.78E-02
same,Proline - […] HT-HsProRS - 1000nM MAT379,HT-HsProRS [4]; Log[Substrate] (M) -1.301,6.44E-02 and 4.43E-02 and 5.23E-02 and 4.24E-02
same,Proline - […] HT-HsProRS - 1000nM MAT379,HT-HsProRS [4]; Log[Substrate] (M) -1.602,7.04E-02 and 4.04E-02 and 8.19E-02 and 3.22E-02
same,Proline - […] HT-HsProRS - 1000nM MAT379,HT-HsProRS [4]; Log[Substrate] (M) -1.903,1.06E-01 and 8.64E-02 and 1.07E-01 and 6.69E-02
same,Proline - […] HT-HsProRS - 1000nM MAT379,HT-HsProRS [4]; Log[Substrate] (M) -2.204,7.48E-02 and 1.05E-01 and 9.62E-02 and 1.28E-01
same,Proline - […] HT-HsProRS - 1000nM MAT379,HT-HsProRS [4]; Log[Substrate] (M) -2.505,7.61E-02 and 5.21E-02 and 2.93E-02 and 5.48E-02
same,Proline - […] HT-HsProRS - 1000nM MAT379,HT-HsProRS [4]; Log[Substrate] (M) -2.806,2.57E-02 and 8.53E-02 and 3.59E-02 and 4.74E-02
same,Proline - […] HT-HsProRS - 1000nM MAT379,HT-HsProRS [4]; Log[Substrate] (M) -3.107,9.60E-02 and 9.41E-02 and 9.82E-02 and 9.09E-02
same,Proline - […] HT-HsProRS - 1000nM MAT379,HT-HsProRS [4]; Log[Substrate] (M) -3.408,8.87E-02 and 1.50E-01 and 1.08E-01 and 8.19E-02
same,Proline - […] HT-HsProRS - 1000nM MAT379,HT-HsProRS [4]; Log[Substrate] (M) -3.709,1.42E-01 and 1.36E-01 and 1.15E-01 and 1.26E-01
same,Proline - […] HT-HsProRS - 1000nM MAT379,HT-HsProRS [4]; Log[Substrate] (M) -4.010,2.43E-01 and 1.82E-01 and 1.50E-01 and 1.67E-01
same,Proline - […] HT-HsProRS - 1000nM MAT379,HT-HsProRS [4]; Log[Substrate] (M) -4.311,2.57E-01 and 2.23E-01 and 2.59E-01 and 1.99E-01
same,Proline - […] HT-HsProRS - 1000nM MAT379,HT-HsProRS [4]; Log[Substrate] (M) -4.612,2.84E-01 and 3.36E-01 and 2.90E-01 and 3.09E-01
same,Proline - […] HT-HsProRS - 1000nM MAT379,HT-HsProRS [4]; Log[Substrate] (M) -4.913,3.43E-01 and 3.30E-01 and 3.37E-01 and 3.11E-01
same,Proline - […] HT-HsProRS - 1000nM MAT379,HT-HsProRS [4]; Log[Substrate] (M) -5.214,3.51E-01 and 3.56E-01 and 3.15E-01 and 3.55E-01
same,Proline - […] HT-HsProRS - 1000nM MAT379,HT-HsProRS [4]; Log[Substrate] (M) -5.515,4.26E-01 and 4.08E-01 and 4.22E-01 and 4.16E-01
same,Proline - […] HT-HsProRS - 1000nM MAT379,HT-HsProRS [4]; Log[Substrate] (M) -5.816,4.12E-01 and 3.85E-01 and 3.49E-01 and 3.26E-01
same,Proline - […] HT-HsProRS - 1000nM MAT379,HT-HsProRS [4]; Log[Substrate] (M) -6.118,4.73E-01 and 4.43E-01 and 3.95E-01 and 3.89E-01
same,Kd,"HT-HsProRS [5]; HsProRS (KD [nM]) mean, substrates, substrate KD, (-)",30600 nM
same,Kd,"HT-HsProRS [5]; KD of substrate, […] HT-HsProRS, 1000 nM MAT379",67100 nM
same,Km,HsProRS [6],180 µM
same,fold lower affinity for PfcProRS than MAT379,HT-PfcProRS [7],"~ 4,500 fold"
